From patent publication US10344060B2 (priority 2013, dated 2019)
Values joined by “and” are separate entries in the source; they are usually repeats but may differ in a detail not shown here. Identical values can stand only once. Like-named read-outs stand apart in the source and are kept apart here.

Columns and labels:
Assay in all cases: cell-based
hNav1.7 [1] = target: T1, hNav1.7 (Homo sapiens, UniProt Q15858); conditions: for IC50: read-out: IC50 (μM) Nav1.7
hNav1.5 = hNav1.5 (Homo sapiens, UniProt Q14524); conditions: read-out: IC50 (μM) Nav1.5
Sequence of hNav1.5 (Q14524 whole entry): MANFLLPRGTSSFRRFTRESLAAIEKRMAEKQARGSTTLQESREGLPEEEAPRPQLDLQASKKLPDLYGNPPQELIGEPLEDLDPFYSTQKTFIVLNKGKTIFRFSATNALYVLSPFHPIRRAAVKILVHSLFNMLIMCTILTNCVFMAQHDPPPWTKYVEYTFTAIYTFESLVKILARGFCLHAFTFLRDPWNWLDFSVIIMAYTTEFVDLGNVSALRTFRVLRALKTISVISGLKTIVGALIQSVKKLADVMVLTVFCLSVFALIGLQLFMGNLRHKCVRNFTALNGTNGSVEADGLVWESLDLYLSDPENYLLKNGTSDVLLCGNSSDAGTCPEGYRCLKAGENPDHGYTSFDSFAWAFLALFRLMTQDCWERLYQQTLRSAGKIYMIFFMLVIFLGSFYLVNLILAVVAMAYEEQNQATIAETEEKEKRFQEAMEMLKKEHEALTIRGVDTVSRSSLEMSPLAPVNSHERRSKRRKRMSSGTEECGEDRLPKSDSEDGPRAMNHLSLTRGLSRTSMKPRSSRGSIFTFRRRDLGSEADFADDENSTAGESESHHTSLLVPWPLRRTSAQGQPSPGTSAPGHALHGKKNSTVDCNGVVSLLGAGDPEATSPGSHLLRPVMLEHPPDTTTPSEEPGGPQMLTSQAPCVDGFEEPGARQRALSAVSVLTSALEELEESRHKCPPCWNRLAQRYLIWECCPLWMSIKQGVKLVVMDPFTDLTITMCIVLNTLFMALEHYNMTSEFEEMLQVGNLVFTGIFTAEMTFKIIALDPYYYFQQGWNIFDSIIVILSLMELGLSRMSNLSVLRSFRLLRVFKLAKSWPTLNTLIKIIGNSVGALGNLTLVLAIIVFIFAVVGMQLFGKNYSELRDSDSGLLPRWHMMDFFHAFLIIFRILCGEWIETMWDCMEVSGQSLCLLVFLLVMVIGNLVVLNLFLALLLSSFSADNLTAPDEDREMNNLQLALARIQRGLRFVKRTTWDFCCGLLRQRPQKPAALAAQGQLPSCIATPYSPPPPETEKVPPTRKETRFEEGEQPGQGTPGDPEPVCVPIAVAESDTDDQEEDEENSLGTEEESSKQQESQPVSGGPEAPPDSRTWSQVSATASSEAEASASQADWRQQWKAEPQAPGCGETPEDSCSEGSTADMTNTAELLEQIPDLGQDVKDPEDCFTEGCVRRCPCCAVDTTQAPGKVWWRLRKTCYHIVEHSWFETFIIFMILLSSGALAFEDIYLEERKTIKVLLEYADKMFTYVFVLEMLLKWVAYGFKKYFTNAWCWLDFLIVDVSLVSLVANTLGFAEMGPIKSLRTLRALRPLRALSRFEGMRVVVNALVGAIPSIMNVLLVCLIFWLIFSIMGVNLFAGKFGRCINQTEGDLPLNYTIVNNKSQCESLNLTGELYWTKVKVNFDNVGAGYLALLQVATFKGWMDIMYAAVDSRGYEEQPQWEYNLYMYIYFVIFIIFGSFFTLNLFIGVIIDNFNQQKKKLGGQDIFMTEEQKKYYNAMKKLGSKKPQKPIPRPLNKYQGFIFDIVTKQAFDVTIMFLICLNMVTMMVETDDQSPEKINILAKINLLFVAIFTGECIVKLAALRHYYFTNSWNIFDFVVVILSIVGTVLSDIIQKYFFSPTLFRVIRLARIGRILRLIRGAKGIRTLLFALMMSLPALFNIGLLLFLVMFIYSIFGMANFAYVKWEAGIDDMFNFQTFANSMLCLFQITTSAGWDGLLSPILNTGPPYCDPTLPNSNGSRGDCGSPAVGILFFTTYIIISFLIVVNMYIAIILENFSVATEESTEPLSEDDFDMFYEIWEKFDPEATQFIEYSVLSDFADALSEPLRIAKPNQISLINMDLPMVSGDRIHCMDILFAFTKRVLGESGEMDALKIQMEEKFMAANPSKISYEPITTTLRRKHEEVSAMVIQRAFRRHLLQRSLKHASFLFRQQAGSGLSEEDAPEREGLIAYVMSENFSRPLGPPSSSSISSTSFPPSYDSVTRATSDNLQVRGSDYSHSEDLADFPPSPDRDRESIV

hNav1.4 = hNav1.4 (Homo sapiens, UniProt P35499); type: cell-based; conditions: for IC50: IonWorks Quattro, read-out: IC50 (μM) Nav1.4; for Nav1.4/Nav1.7: ratio of IonWorks Quattro IC50 values
Sequence of hNav1.4 (P35499 whole entry): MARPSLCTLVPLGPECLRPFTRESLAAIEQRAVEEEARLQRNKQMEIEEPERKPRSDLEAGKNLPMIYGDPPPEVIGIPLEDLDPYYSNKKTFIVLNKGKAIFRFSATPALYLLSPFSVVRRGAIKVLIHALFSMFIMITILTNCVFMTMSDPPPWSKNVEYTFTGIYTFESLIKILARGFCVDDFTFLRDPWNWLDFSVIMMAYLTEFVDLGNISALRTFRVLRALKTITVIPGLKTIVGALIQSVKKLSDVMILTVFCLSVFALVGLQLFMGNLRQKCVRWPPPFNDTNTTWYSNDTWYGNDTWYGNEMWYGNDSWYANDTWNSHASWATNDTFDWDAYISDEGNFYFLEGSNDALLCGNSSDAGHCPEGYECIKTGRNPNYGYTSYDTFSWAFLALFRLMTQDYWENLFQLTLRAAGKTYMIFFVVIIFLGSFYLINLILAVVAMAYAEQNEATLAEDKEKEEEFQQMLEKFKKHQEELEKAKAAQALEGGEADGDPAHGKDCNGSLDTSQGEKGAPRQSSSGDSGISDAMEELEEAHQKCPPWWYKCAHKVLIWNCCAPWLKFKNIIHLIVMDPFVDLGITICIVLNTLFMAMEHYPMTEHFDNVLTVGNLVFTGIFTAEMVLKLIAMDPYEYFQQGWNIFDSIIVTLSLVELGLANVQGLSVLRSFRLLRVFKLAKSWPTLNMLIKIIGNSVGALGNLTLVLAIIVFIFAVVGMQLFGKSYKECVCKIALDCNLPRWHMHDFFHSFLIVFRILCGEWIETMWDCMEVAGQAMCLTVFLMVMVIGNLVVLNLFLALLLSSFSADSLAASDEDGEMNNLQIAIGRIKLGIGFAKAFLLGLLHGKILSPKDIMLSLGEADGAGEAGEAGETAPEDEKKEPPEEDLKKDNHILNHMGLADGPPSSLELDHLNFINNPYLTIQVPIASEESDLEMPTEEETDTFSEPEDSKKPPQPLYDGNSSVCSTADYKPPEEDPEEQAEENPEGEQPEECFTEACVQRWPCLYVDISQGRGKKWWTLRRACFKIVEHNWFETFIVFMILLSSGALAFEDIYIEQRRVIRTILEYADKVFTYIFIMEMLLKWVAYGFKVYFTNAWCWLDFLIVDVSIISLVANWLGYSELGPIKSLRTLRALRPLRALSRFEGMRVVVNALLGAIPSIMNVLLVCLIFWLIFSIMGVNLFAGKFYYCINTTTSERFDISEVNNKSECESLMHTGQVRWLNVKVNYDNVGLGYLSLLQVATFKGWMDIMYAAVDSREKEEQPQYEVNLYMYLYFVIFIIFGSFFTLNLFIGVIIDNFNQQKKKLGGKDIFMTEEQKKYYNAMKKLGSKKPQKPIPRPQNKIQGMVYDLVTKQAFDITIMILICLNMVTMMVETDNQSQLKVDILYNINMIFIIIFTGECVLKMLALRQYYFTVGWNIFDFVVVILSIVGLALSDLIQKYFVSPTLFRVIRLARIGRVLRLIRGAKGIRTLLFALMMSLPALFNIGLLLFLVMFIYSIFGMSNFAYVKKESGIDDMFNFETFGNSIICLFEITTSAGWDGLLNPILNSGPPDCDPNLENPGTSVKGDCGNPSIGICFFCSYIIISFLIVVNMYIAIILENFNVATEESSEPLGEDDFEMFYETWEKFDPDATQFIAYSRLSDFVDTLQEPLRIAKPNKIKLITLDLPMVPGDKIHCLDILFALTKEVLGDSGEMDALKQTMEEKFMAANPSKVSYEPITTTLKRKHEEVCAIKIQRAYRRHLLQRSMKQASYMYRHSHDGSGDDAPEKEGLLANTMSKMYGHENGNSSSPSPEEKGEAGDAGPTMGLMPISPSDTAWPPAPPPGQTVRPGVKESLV

hNav1.3 = hNav1.3 (Homo sapiens, UniProt Q9NY46); conditions: IonWorks Quattro, read-out: IC50 (μM) Nav1.3
hNav1.7 [2] = target: T1, hNav1.7; type: cell-based; conditions: PatchXpress, tonic; Table 11; read-out: PX hNav1.7 Tonic IC50

| Structure (SMILES) | IC50 (hNav1.7 [1]) [µM] | IC50 (hNav1.5; IonWorks Quattro, Table 6) [µM] | IC50 (hNav1.4; Table 6) [µM] | Nav1.4/Nav1.7 (hNav1.4; Table 6) | IC50 (hNav1.3; Table 6) [µM] | also measured |
| --- | --- | --- | --- | --- | --- | --- |
| CC[C@H](C)[C@H](NC(=O)[C@H](Cc1cccc2ccccc12)NC(=O)[C@H](CCCCN)NC(=O)[C@H](CCCNC(=N)N)NC(=O)[C@@H]1CSSC[C@@H]2NC(=O)[C@H](C)NC(=O)[C@H](CCCNC(=N)N)NC(=O)[C@H](CCCCN)NC(=O)[C@H](CO)NC(=O)[C@H](CC(=O)O)NC(=O)[C@@H]3CSSC[C@H](NC(=O)[C@H](CCCNC(=N)N)NC(=O)[C@H](CC(C)C)NC(=O)CNC(=O)[C@H](CCC(=O)O)NC(=O)[C@H](CSSC[C@H](NC(=O)[C@@H](N)Cc4ccc(O)cc4)C(=O)N[C@@H](CCC(N)=O)C(=O)N[C@@H](CCCCN)C(=O)N[C@@H](Cc4c[nH]c5ccccc45)C(=O)N[C@@H](CCSC)C(=O)N[C@@H](Cc4c[nH]c5ccccc45)C(=O)N[C@@H]([C@@H](C)O)C(=O)N3)NC2=O)C(=O)N[C@@H](CCCCN)C(=O)N[C@@H](CC(C)C)C(=O)N[C@@H](Cc2c[nH]c3ccccc23)C(=O)N1)C(N)=O [compound 46] | 0.006 | 3.6 | 0.1 | 17 | 0.06 | – |
| CC[C@H](C)[C@H](NC(=O)[C@@H](NC(=O)[C@H](CCCCN)NC(=O)[C@H](CCCNC(=N)N)NC(=O)[C@@H]1CSSC[C@@H]2NC(=O)[C@H](C)NC(=O)[C@H](CCCNC(=N)N)NC(=O)[C@H](CCCCN)NC(=O)[C@H](CO)NC(=O)[C@H](CC(=O)O)NC(=O)[C@@H]3CSSC[C@H](NC(=O)[C@H](CCCNC(=N)N)NC(=O)[C@H](CC(C)C)NC(=O)CNC(=O)[C@H](C)NC(=O)[C@H](CSSC[C@H](NC(=O)[C@@H](N)Cc4ccc(O)cc4)C(=O)N[C@@H](CCC(N)=O)C(=O)N[C@@H](CCCCN)C(=O)N[C@@H](Cc4c[nH]c5ccccc45)C(=O)N[C@@H](CCSC)C(=O)N[C@@H](Cc4c[nH]c5ccccc45)C(=O)N[C@@H]([C@@H](C)O)C(=O)N3)NC2=O)C(=O)N[C@@H](CCCCN)C(=O)N[C@@H](CC(C)C)C(=O)N[C@@H](Cc2c[nH]c3ccccc23)C(=O)N1)[C@@H](C)CC)C(N)=O [compound 14] | 0.008 | 2 | 0.06 | 8 | 0.08 | – |
| CC[C@H](C)[C@H](NC(=O)[C@@H](NC(=O)[C@H](CCCCN)NC(=O)[C@H](CCCNC(=N)N)NC(=O)[C@@H]1CSSC[C@@H]2NC(=O)[C@H](C)NC(=O)[C@H](CCCNC(=N)N)NC(=O)[C@H](CCCCN)NC(=O)[C@H](CO)NC(=O)[C@H](CC(=O)O)NC(=O)[C@@H]3CSSC[C@H](NC(=O)[C@H](CCCNC(=N)N)NC(=O)[C@H](CC(C)C)NC(=O)CNC(=O)[C@H](CCC(=O)O)NC(=O)[C@H](CSSC[C@H](NC(=O)[C@@H](N)Cc4ccc(O)cc4)C(=O)N[C@@H](CCC(N)=O)C(=O)N[C@@H](CCCCN)C(=O)N[C@@H](Cc4c[nH]c5ccccc45)C(=O)N[C@@H](CCSC)C(=O)N[C@@H](Cc4c[nH]c5ccccc45)C(=O)N[C@@H]([C@@H](C)O)C(=O)N3)NC2=O)C(=O)N[C@@H](CCCCN)C(=O)N[C@@H](CCCNC(=N)N)C(=O)N[C@@H](Cc2c[nH]c3ccccc23)C(=O)N1)[C@@H](C)CC)C(N)=O [compound 105] | 0.15 | 2.8 | 0.21 | 1 | 0.15 | – |
| CC[C@H](C)[C@H](NC(=O)[C@@H](NC(=O)[C@H](CCCCN)NC(=O)[C@H](CCCNC(=N)N)NC(=O)[C@@H]1CSSC[C@@H]2NC(=O)[C@H](C)NC(=O)[C@H](CCCNC(=N)N)NC(=O)[C@H](CCCCN)NC(=O)[C@H](CO)NC(=O)[C@H](CC(=O)O)NC(=O)[C@@H]3CSSC[C@H](NC(=O)[C@H](CCCNC(=N)N)NC(=O)[C@H](CC(C)C)NC(=O)CNC(=O)[C@H](CCCNC(=N)N)NC(=O)[C@H](CSSC[C@H](NC(=O)[C@@H](N)Cc4ccc(O)cc4)C(=O)N[C@@H](CCC(N)=O)C(=O)N[C@@H](CCCCN)C(=O)N[C@@H](Cc4c[nH]c5ccccc45)C(=O)N[C@@H](CCSC)C(=O)N[C@@H](Cc4c[nH]c5ccccc45)C(=O)N[C@@H]([C@@H](C)O)C(=O)N3)NC2=O)C(=O)N[C@@H](CCCCN)C(=O)N[C@@H](CC(C)C)C(=O)N[C@@H](Cc2c[nH]c3ccccc23)C(=O)N1)[C@@H](C)CC)C(N)=O [compound 101] | 0.014 | 0.95 | 0.06 | 4 | 0.04 | – |
| CC[C@H](C)[C@H](NC(=O)[C@H](CCCCN)NC(=O)[C@H](CCCNC(=N)N)NC(=O)[C@@H]1CSSC[C@@H]2NC(=O)[C@H](C)NC(=O)[C@H](CCCNC(=N)N)NC(=O)[C@H](CCCCN)NC(=O)[C@H](CO)NC(=O)[C@H](CC(=O)O)NC(=O)[C@@H]3CSSC[C@H](NC(=O)[C@H](CCC(=O)O)NC(=O)[C@H](CC(C)C)NC(=O)CNC(=O)[C@H](CCC(=O)O)NC(=O)[C@H](CSSC[C@H](NC(=O)[C@@H](N)Cc4ccc(O)cc4)C(=O)N[C@@H](CCC(N)=O)C(=O)N[C@@H](CCCCN)C(=O)N[C@@H](Cc4c[nH]c5ccccc45)C(=O)N[C@@H](CCSC)C(=O)N[C@@H](Cc4c[nH]c5ccccc45)C(=O)N[C@@H]([C@@H](C)O)C(=O)N3)NC2=O)C(=O)N[C@@H](CCCCN)C(=O)N[C@@H](CC(C)C)C(=O)N[C@@H](Cc2c[nH]c3ccccc23)C(=O)N1)C(=O)N[C@@H](Cc1cn(CCCOCCOCCOCCOCCOCCOCCOCCOCCOCCOCCN)nn1)C(N)=O [compound 188] | – | – | – | – | – | IC50 (hNav1.5; IonWorks Quattro, Table 9): 20.1 µM; IC50 (hNav1.4; Table 9): > 5 µM; Nav1.4/Nav1.7 (hNav1.4; Table 9): 1; IC50 (hNav1.3; Table 9): > 5 µM |
| CC[C@H](C)[C@H](NC(=O)[C@@H](NC(=O)[C@H](CCCCN)NC(=O)[C@H](CCCNC(=N)N)NC(=O)[C@@H]1CSSC[C@@H]2NC(=O)[C@H](C)NC(=O)[C@H](CCCNC(=N)N)NC(=O)[C@H](CCCCN)NC(=O)[C@H](CO)NC(=O)[C@H](CC(=O)O)NC(=O)[C@@H]3CSSC[C@H](NC(=O)[C@H](CCCNC(=N)N)NC(=O)[C@H](CC(C)C)NC(=O)CNC(=O)[C@H](CCC(=O)O)NC(=O)[C@H](CSSC[C@H](NC(=O)[C@@H](N)Cc4ccc(O)cc4)C(=O)N[C@@H](CCC(N)=O)C(=O)N[C@@H](CCCCN)C(=O)N[C@@H](Cc4c[nH]c5ccccc45)C(=O)N[C@@H](CCSC)C(=O)N[C@@H](Cc4c[nH]c5ccccc45)C(=O)N[C@@H]([C@@H](C)O)C(=O)N3)NC2=O)C(=O)N[C@@H](CCCCN)C(=O)N[C@@H](CC(C)C)C(=O)N[C@@H](Cc2c[nH]c3ccccc23)C(=O)N1)[C@@H](C)CC)C(=O)O [compound 1] | 0.17 | > 5 | – | – | – | IC50 (hNav1.7 [2]): 0.0131 µM |
| CC[C@H](C)[C@H](NC(=O)CNC(=O)[C@H](CCCCN)NC(=O)[C@H](CCCNC(=N)N)NC(=O)[C@@H]1CSSC[C@@H]2NC(=O)[C@H](C)NC(=O)[C@H](CCCNC(=N)N)NC(=O)[C@H](CCCCN)NC(=O)[C@H](CO)NC(=O)[C@H](CC(=O)O)NC(=O)[C@@H]3CSSC[C@H](NC(=O)[C@H](CCC(=O)O)NC(=O)[C@H](CC(C)C)NC(=O)CNC(=O)[C@H](CCC(=O)O)NC(=O)[C@H](CSSC[C@H](NC(=O)[C@@H](N)Cc4ccc(O)cc4)C(=O)N[C@@H](CCC(N)=O)C(=O)N[C@@H](CCCCN)C(=O)N[C@@H](Cc4c[nH]c5ccccc45)C(=O)N[C@@H](CCSC)C(=O)N[C@@H](Cc4c[nH]c5ccccc45)C(=O)N[C@@H]([C@@H](C)O)C(=O)N3)NC2=O)C(=O)N[C@@H](CCCCN)C(=O)N[C@@H](CC(C)C)C(=O)N[C@@H](Cc2c[nH]c3ccccc23)C(=O)N1)C(N)=O [compound 134] | – | – | – | – | – | Nav1.4/Nav1.7 (hNav1.7 [1]; ratio of IonWorks Quattro IC50 values, Nav1.4 over Nav1.7): 17 and 13; IC50 (hNav1.5): 11.1 µM |
| CC[C@H](C)[C@H](NC(=O)[C@@H](NC(=O)[C@H](CCCCN)NC(=O)[C@H](CCCNC(=N)N)NC(=O)[C@@H]1CSSC[C@@H]2NC(=O)[C@H](C)NC(=O)[C@H](CCCNC(=N)N)NC(=O)[C@H](CCCCN)NC(=O)[C@H](CO)NC(=O)[C@H](CC(=O)O)NC(=O)[C@@H]3CSSC[C@H](NC(=O)[C@H](CCC(=O)O)NC(=O)[C@H](CC(C)C)NC(=O)CNC(=O)[C@H](CCC(=O)O)NC(=O)[C@H](CSSC[C@H](NC(=O)[C@@H](N)Cc4ccc(O)cc4)C(=O)N[C@@H](CCC(N)=O)C(=O)N[C@@H](CCCCN)C(=O)N[C@@H](Cc4c[nH]c5ccccc45)C(=O)N[C@@H](CCSC)C(=O)N[C@@H](Cc4c[nH]c5ccccc45)C(=O)N[C@@H](Cc4cn(CCCOCCOCCOCCOCCOCCOCCOCCOCCOCCOCCN)nn4)C(=O)N3)NC2=O)C(=O)N[C@@H](CCCCN)C(=O)N[C@@H](CC(C)C)C(=O)N[C@@H](Cc2c[nH]c3ccccc23)C(=O)N1)[C@@H](C)CC)C(N)=O [compound 171] | – | – | – | – | – | IC50 (hNav1.5; IonWorks Quattro, Table 9): 18.7 µM; IC50 (hNav1.4; Table 9): > 5 µM; Nav1.4/Nav1.7 (hNav1.4; Table 9): 1; IC50 (hNav1.3; Table 9): > 5 µM |
| CC[C@H](C)[C@H](NC(=O)[C@H](CCCNC(=N)N)NC(=O)[C@H](CCCCN)NC(=O)[C@H](CCCNC(=N)N)NC(=O)[C@@H]1CSSC[C@@H]2NC(=O)[C@H](C)NC(=O)[C@H](CCCNC(=N)N)NC(=O)[C@H](CCCCN)NC(=O)[C@H](CO)NC(=O)[C@H](CC(=O)O)NC(=O)[C@@H]3CSSC[C@H](NC(=O)[C@H](CCCNC(=N)N)NC(=O)[C@H](CC(C)C)NC(=O)CNC(=O)[C@H](CCC(=O)O)NC(=O)[C@H](CSSC[C@H](NC(=O)[C@@H](N)Cc4ccc(O)cc4)C(=O)N[C@@H](CCC(N)=O)C(=O)N[C@@H](CCCCN)C(=O)N[C@@H](Cc4c[nH]c5ccccc45)C(=O)N[C@@H](CCSC)C(=O)N[C@@H](Cc4c[nH]c5ccccc45)C(=O)N[C@@H]([C@@H](C)O)C(=O)N3)NC2=O)C(=O)N[C@@H](CCCCN)C(=O)N[C@@H](CC(C)C)C(=O)N[C@@H](Cc2c[nH]c3ccccc23)C(=O)N1)C(N)=O [compound 108] | – | 1.8 | 0.14 | – | 0.06 | – |
